pEC50, pIC50: −log10 of the molar value.
Legend:
human TPOR = molecular target: T1, human TPOR (Homo sapiens, UniProt P40238); experiment: Proliferation of BAF3/TPOR cells (MTS method, OD490); type: cell-based, mouse; details: BAF3 cells stably expressing human TPOR, cultured with compound 24 h
T1 construct: expressed in transfected cells; host or cells: mouse BAF3 cells
T1 sequence (P40238 26-635): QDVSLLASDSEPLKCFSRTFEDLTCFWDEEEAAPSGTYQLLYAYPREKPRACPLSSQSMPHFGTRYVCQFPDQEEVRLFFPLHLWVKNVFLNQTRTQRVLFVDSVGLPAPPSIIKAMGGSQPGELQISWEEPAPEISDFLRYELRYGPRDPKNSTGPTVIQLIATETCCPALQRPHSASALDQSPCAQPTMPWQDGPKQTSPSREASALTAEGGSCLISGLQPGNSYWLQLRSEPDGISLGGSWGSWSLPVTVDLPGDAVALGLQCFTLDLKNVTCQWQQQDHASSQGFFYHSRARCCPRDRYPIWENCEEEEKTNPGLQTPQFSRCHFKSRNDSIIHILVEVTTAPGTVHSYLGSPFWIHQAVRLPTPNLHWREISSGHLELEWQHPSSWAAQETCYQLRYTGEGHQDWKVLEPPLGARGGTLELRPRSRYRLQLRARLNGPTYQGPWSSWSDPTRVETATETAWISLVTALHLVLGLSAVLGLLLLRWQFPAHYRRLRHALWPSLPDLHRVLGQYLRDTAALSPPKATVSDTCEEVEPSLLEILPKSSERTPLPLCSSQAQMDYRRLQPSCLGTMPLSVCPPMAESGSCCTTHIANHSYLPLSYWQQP
Excerpt: The TPO mimetic compound was synthesized in vitro, and the compound acted on the TPO receptor (TPOR) on the cell to stimulate cell proliferation and differentiation. The OD490 value was detected by the MTS method, and the more the number of cells, the larger the OD value, thereby detecting the response of the compound to cell proliferation and differentiation. The agonist concentration at which the increased signal arrived at the highest level was Emax, and the concentration of the compound at which the increased signal arrived at 50% of the signal of Emax was EC50. The activity of the compound was determinable by EC50, and the smaller the EC50, the higher the activity of the compound.
Mouse […] BAF3 stably expressing human TPOR were cultured in 1640 medium containing 10% FBS. On the day of the assay, the cells were counted and seeded in a 96-well plate at 1×10^4 cells/50 μL. 50 μL of different concentrations of the tested compound were added to the wells to a final concentration of 10000 nM, 3000 nM, 300 nM, 30 nM, 3 nM, 0.3 nM, 0.03 nM, 0.003 nM, 0.0003 nM, and the final concentration of DMSO was 1%. After the cells were cultured with the compound for 24 h at 37° C. in a 5% CO2 incubator, 10 μL of detection reagent (Promega, Cell Titer 96® Aqueous One Solution) was added. After mixing, the resulting mixture was incubated for 3 h in the incubator. The OD 490 was detected using a multifunctional automatic microplate reader, and the EC50 was fitted using GraphPad Prism 5 software.

hERG potassium channel = hERG potassium channel (Homo sapiens, UniProt Q12809); experiment: hERG test, electrophysiological manual patch clamp; type: cell-based; details: for pIC50: manual patch clamp, IC50 >10 μM judged as no inhibitory effect on hERG; for hERG potassium channel inhibition (judgement in words): conclusion from Table 2
Chain of hERG potassium channel (Q12809 whole entry): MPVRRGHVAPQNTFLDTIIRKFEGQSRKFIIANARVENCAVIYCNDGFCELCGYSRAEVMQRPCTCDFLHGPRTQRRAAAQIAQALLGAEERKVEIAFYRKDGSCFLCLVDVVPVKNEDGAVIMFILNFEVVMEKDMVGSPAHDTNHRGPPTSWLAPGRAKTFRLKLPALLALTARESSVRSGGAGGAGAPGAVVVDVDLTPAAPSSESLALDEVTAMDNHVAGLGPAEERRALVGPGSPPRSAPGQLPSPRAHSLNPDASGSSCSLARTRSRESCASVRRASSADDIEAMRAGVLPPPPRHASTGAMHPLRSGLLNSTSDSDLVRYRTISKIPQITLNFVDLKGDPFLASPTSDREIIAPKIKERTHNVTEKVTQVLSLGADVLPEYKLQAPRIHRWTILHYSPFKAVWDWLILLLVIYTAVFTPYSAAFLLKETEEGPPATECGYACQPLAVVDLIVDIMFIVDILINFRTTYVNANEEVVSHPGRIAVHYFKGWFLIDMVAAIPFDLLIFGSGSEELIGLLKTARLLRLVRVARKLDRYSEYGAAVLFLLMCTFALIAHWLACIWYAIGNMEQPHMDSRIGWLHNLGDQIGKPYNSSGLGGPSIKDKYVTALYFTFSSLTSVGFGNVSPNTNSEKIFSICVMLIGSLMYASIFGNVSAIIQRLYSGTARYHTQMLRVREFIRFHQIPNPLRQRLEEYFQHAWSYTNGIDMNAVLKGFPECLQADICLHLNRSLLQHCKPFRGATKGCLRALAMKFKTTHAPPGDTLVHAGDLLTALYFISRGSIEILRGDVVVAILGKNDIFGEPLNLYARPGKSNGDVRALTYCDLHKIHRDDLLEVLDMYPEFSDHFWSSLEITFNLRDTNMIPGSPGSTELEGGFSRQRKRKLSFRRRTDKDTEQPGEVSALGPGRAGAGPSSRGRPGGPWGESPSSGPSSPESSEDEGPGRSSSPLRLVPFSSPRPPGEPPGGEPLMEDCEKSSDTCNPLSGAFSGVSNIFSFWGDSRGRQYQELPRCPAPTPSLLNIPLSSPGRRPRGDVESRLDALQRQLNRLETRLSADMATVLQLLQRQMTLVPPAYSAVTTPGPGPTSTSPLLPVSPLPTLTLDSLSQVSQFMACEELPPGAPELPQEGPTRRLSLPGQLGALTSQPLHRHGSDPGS
Excerpt: In cardiomyocytes, the potassium channel encoded by hERG (human Ether-a-go-go Related Gene) mediated the delayed rectifier potassium current (lKr). The IKr inhibition was the most important mechanism for drug-induced QT prolongation and induction of arrhythmia.
The electrophysiological manual patch clamp was used to detect the effect of the tested compound on the hERG potassium channel.

pEC50 (human TPOR) | Structure (SMILES) | pIC50 (hERG potassium channel) | hERG potassium channel inhibition (judgement in words) (hERG potassium channel)
9.89 | C/C(=C\c1c(Cl)cc(C(=O)Nc2nc(-c3cc(Cl)cs3)c(N3C[C@@H]4CCN(C5[C@H]6C[C@@H]7C[C@@H](C[C@H]5C7)C6)[C@@H]4C3)s2)cc1Cl)C(=O)O (stereo partly drawn) [Example 52, (E)-3-(4-((5-((3aS,6aS)-1-((1S,3S,5S,7S)-adamantan-2-yl)hexahydropyrrolo[3,4-b]pyrrol-5(1H)-yl)-4-(4-chlorothiophen-2-yl)thiazol-2-yl)carbamoyl)-2,6-dichlorophenyl)-2-methylacrylic acid] | 5.10 | 
9.22 | C/C(=C\c1c(Cl)cc(C(=O)Nc2nc(-c3cc(Cl)cs3)c(N3CCC4C(CCN4C4CCCCC4)C3)s2)cc1Cl)C(=O)O (centres unmarked) [Example 48] |  | 
9.23 | C/C(=C\c1c(Cl)cc(C(=O)Nc2nc(-c3cc(Cl)cs3)c(N3CC4CCN(C5C[C@H]6CC[C@@H]5C6)C4C3)s2)cc1Cl)C(=O)O (some centres unmarked) [Example 45, (E)-3-(4-((5-(1-(bicyclo[2.2.1]hept-2-yl)-hexahydropyrrolo[3,4-b]pyrrol-5(1H)-yl)-4-(4-chlorothiophen-2-yl)-thiazol-2-yl)-carbamoyl)-2,6-dichlorophenyl)-2-methylacrylic acid] |  | 
10.10 | C/C(=C\c1c(Cl)cc(C(=O)Nc2nc(-c3cc(Cl)cs3)c(N3CC4CCN(C5[C@H]6C[C@@H]7C[C@@H](C[C@H]5C7)C6)C4C3)s2)cc1Cl)C(=O)O (stereo partly drawn) [Example 46, (E)-3-(4-((5-(1-((1R,3R,5R,7R)-adamantan-2-yl)hexahydropyrrolo[3,4-b]pyrrol-5(1H)-yl)-4-(4-chlorothiophen-2-yl)thiazol-2-yl)carbamoyl)-2,6-dichlorophenyl)-2-methylacrylic acid] |  | 
10.15 | C/C(=C\c1c(Cl)cc(C(=O)Nc2nc(-c3cc(Cl)cs3)c(N3CC4CCN(C5CCCC5)C4C3)s2)cc1Cl)C(=O)O (centres unmarked) [Example 40, (E)-3-(2,6-dichloro-4-((4-(4-chlorothiophen-2-yl)-5-(1-cyclopentyl-hexahydropyrrolo[3,4-b]pyrrol-5(1H)-yl)-thiazol-2-yl)-carbamoyl)-phenyl)-2-methylacrylic acid] |  | 
9.89 | C/C(=C\c1c(Cl)cc(C(=O)Nc2nc(-c3cc(Cl)cs3)c(N3CC4CCN(C5CCCCCC5)C4C3)s2)cc1Cl)C(=O)O (centres unmarked) [Example 44, (E)-3-(4-((5-(1-cycloheptyl-hexahydropyrrolo[3,4-b]pyrrol-5(1H)-yl)-4-(4-chlorothiophen-2-yl)-thiazol-2-yl)-carbamoyl)-2,6-dichlorophenyl)-2-methylacrylic acid] |  | 
10.30 | C/C(=C\c1c(Cl)cc(C(=O)Nc2nc(-c3cc(Cl)cs3)c(N3C[C@H]4CCN(C5[C@H]6C[C@@H]7C[C@@H](C[C@H]5C7)C6)[C@H]4C3)s2)cc1Cl)C(=O)O (stereo partly drawn) [Example 51, (E)-3-(4-((5-((3aR,6aR)-1-((1R,3R,5R,7R)-adamantan-2-yl)hexahydropyrrolo[3,4-b]pyrrol-5(1H)-yl)-4-(4-chlorothiophen-2-yl)thiazol-2-yl)carbamoyl)-2,6-dichlorophenyl)-2-methylacrylic acid] | < 4.52 | no hERG inhibition

Further lines, the compound ahead of its results:

Structure (SMILES) | pEC50 (human TPOR) | pIC50 (hERG potassium channel) | hERG potassium channel inhibition (judgement in words) (hERG potassium channel)
O=C(Nc1nc(-c2cc(Cl)cs2)c(N2CC3CCN(C4CCCCCC4)C3C2)s1)c1cnc(N2CCC(C(=O)O)CC2)c(Cl)c1 (centres unmarked) [Example 8, 1-(3-chloro-5-((4-(4-chlorothiophen-2-yl)-5-(1-cycloheptyl-hexahydropyrrolo[3,4-b]pyrrol-5(1H)-yl)-thiazol-2-yl)-carbamoyl)-pyridin-2-yl)-piperidine-4-carboxylic acid] | 8.95 |  | 
O=C(Nc1nc(-c2cc(Cl)cs2)c(N2CC3CCN(C4CCC4)C3C2)s1)c1cnc(N2CCC(C(=O)O)CC2)c(Cl)c1 (centres unmarked) [Example 2, 1-(3-chloro-5-((4-(4-chlorothiophen-2-yl)-5-(1-cyclobutyl-hexahydropyrrolo[3,4-b]-pyrrol-5(1H)-yl)-thiazol-2-yl)-carbamoyl)-pyridin-2-yl)-piperidine-4-carboxylic acid] | 9.68 |  | 
C/C(=C\c1c(Cl)cc(C(=O)Nc2nc(-c3cc(Cl)cs3)c(N3CC4CCN(C5CC(F)(F)C5)C4C3)s2)cc1Cl)C(=O)O (centres unmarked) [Example 38, (E)-3-(4-((5-(1-(3,3-difluorocyclobutyl)-hexahydropyrrolo[3,4-b]pyrrol-5(1H)-yl)-4-(4-chlorothiophen-2-yl)-thiazol-2-yl)-carbamoyl)-2,6-dichlorophenyl)-2-methylacrylic acid] | 9.37 |  | 
CCCCCCO[C@@H](C)c1cccc(-c2csc(NC(=O)c3cc(Cl)c(/C=C(\C)C(=O)O)c(Cl)c3)n2)c1OC [Lusutrombopag, reference compound] | 8.71 | 5.63 | significant cardiac hERG potassium channel inhibition
O=C(Nc1nc(-c2cc(Cl)cs2)c(N2CC3CCN(C4[C@H]5C[C@@H]6C[C@@H](C[C@H]4C6)C5)C3C2)s1)c1cnc(N2CCC(C(=O)O)CC2)c(Cl)c1 (stereo partly drawn) [Example 10, 1-(3-chloro-5-((4-(4-chlorothiophen-2-yl)-5-(1-(1R,3R,5R,7R)-adamantanyl-hexahydropyrrolo[3,4-b]pyrrol-5(1H)-yl)-thiazol-2-yl)carbamoyl)-pyridin-2-yl)-piperidine-4-carboxylic acid] | 10.00 |  | 
O=C(Nc1nc(-c2cc(Cl)cs2)c(N2CC3CCN(C4C[C@H]5CC[C@@H]4C5)C3C2)s1)c1cnc(N2CCC(C(=O)O)CC2)c(Cl)c1 (stereo in doubt) [Example 9, 1-[3-chloro-5-((4-(4-chlorothiophen-2-yl)-5-(1-(bicyclo[2.2.1]hept-2-yl)-hexahydropyrrolo[3,4-b]pyrrol-5(1H)-yl)thiazol-2-yl)carbamoyl)pyridin-2-yl]piperidine-4-carboxylic acid] | 9.68 |  | 
C/C(=C\c1c(Cl)cc(C(=O)Nc2nc(-c3cccc(C(F)(F)F)c3)c(N3CC4CCN(C5CCCCC5)C4C3)s2)cc1Cl)C(=O)O (centres unmarked) [Example 35, (E)-3-(2,6-dichloro-4-(5-(1-cyclohexyl-hexahydropyrrolo[3,4-b]pyrrol-5-yl)-4-(3-trifluoromethylphenyl)-thiazol-2-carbamoyl)-phenyl)-2-methyl-acrylic acid] | 9.24 |  | 
C/C(=C\c1c(Cl)cc(C(=O)Nc2nc(-c3cc(Cl)cs3)c(N3CC4CCN(C5CCC5)C4C3)s2)cc1Cl)C(=O)O (centres unmarked) [Example 37, (E)-3-(2,6-dichloro-4-((4-(4-chlorothiophen-2-yl)-5-(1-cyclobutyl-hexahydropyrrolo[3,4-b]pyrrol-5(1H)-yl)-thiazol-2-yl)-carbamoyl)-phenyl)-2-methylacrylic acid] | 9.47 |  | 
C/C(=C\c1c(Cl)cc(C(=O)Nc2nc(-c3cc(Cl)cs3)c(N3CC4CCN(C5CCCCC5)C4C3)s2)cc1Cl)C(=O)O (centres unmarked) [Example 36, (E)-3-(2,6-dichloro-4-((4-(4-chlorothiophen-2-yl)-5-(1-cyclohexyl-hexahydropyrrolo[3,4-b]pyrrol-5(1H)-yl)-thiazol-2-yl)-carbamoyl)-phenyl)-2-methylacrylic acid] | 10.00 |  | 
O=C(Nc1nc(-c2cc(Cl)cs2)c(N2CC3CCN(C4CCCCC4)C3C2)s1)c1cnc(N2CCC(C(=O)O)CC2)c(Cl)c1 (centres unmarked) [Example 5, 1-(3-chloro-5-((4-(4-chlorothiophen-2-yl)-5-(1-cyclohexyl-hexahydropyrrolo[3,4-b]pyrrol-5(1H)-yl)-thiazol-2-yl)-carbamoyl)-pyridin-2-yl)-piperidine-4-carboxylic acid] | 10.10 |  | 
O=C(Nc1nc(-c2cc(Cl)cs2)c(N2CC3CCC2CN3C2CCCCC2)s1)c1cnc(N2CCC(C(=O)O)CC2)c(Cl)c1 (centres unmarked) [Example 29, 3′-chloro-5′-(4-(4-chlorothiophen-2-yl)-5-(5-cyclohexyl-2,5-diazabicyclo[2.2.2]octan-2-yl)-thiazol-2-carbamoyl)-3,4,5,6-tetrahydro-2H-[1,2′]bipyridine-4-carboxylic acid] | 9.05 |  | 
